Measurements as given in patent publication US8546590B2, “Polar dyes” (Cepheid, priority 2005, dated 2013).

Legend:
[1] = Degradation/deprotection of arsonate ester-protected dye in 25% aqueous ammonia (Method G, HPLC); format: physicochemical
Procedure: (§1) Measuring of Degradation/Deprotection Rate of Arsonate Esters-protected Dye.
(§2) A protected dye (1 mg) and Methyl Red dye (0.5 mg, internal standard, λmax 482 nm) were dissolved in MeOH (5 mL) and mixed with a buffer or 25% aqueous ammonia (45 mL). Samples (1 mL) were taken over a period of degradation. The samples were quickly placed under vacuum to remove ammonia and redissolved in MeOH or used directly for HPLC analysis in buffers in a range of pH 1.6 (0.1% trifluoroacetic acid)-7.5 (0.1 M triethylammonium acetate). HPLC analysis was performed on Phenomenex Gemini 5 um C18 110A column (250×4.6 mm) using 0-100% gradient of MeCN in 0.1M triethylammonium acetate (pH 7.5) buffer. The chromatogram was detected in a range 200-600 nm using Varian ProStar PDA detector. Calculations of the relative concentrations were performed based on peaks area at 520 nm. An internal standard gives a peak at 8.6 min (λmax 482 nm).
FIG. 12 illustrates an example of a typical kinetic curve corresponding to the base-induced deprotection of a bis-pinacol protected azodye.

[2] = Degradation/deprotection of arsonate ester-protected dye in aqueous buffers (Method G, HPLC); format: physicochemical; details: for stability in aqueous buffers: range of pH 1.6-7.5 in aqueous buffers
Procedure: as §1, §2

[3] = 25% aqueous ammonia, room temperature

SMILES	stability / degradation in 25% aqueous ammonia ([1]; 25% aqueous ammonia)	degradation of the compound observed ([1]; over 3 days period, 25% aqueous ammonia at room temperature (and pH 1.6-7.5 buffers))	stability in aqueous buffers [2]	Rate of degradation (τ1/2) [1, 3]	degradation in acidic conditions ([2]; acidic conditions, aqueous buffers)	time after which practically full deprotection was observed ([2]; buffer, room temperature, pH 7.5) [h]	degradation at pH 7.5 ([2]; pH 7.5 aqueous buffer)	Rate of full degradation (τ1/2) ([2]; room temperature and pH 7.5 buffer)	Rate of full degradation (τ1/2) [1, 3]	time after which practically full deprotection was observed [1, 3] [h]
CN(C)c1ccc(N=Nc2ccc([As]34(Oc5ccccc5O3)Oc3ccccc3O4)cc2)cc1 [Example 14, [4-(4′-Dimethylaminophenylazo)phenyl]arsonic acid bis-catechol chelate]	very stable	No degradation	very stable							
CN(C)c1ccc(N=Nc2ccc([As]34(OC(C)(C)C(C)(C)O3)OC(C)(C)C(C)(C)O4)cc2)cc1 [Example 11, [4-(4′-Dimethylaminophenylazo)phenyl]arsonic acid bis-pinacolate]	degrades		stable	approximately 3 hr						
CN(C)c1ccc(N=Nc2ccc([As]3(=O)OC(=O)C(C)(C)O3)cc2)cc1 (stereo not drawn) [Example 13, [4-(4′-Dimethylaminophenylazo)phenyl]arsonic acid, chelate with 2-hydroxy-isobutyric acid]			very unstable		degrades instantly	2	within minutes	approximately 10 min		
CN(C)c1ccc(N=Nc2ccc([As]3(=O)OC(C)(C)CC(C)(C)O3)cc2)cc1 [Example 12, [4-(4′-Dimethylaminophenylazo)phenyl]arsonic acid 2,4-dimethyl-2,4-pentanediol chelate]	degrades quickly		relatively stable						approximately 15 min	4
